Experimental data: US5371186A, “Synthetic peptides for detoxification of bacterial endotoxins and for the prevention and treatment of septic shock” (priority 1992, dated 1994)

Tests used:
[1] = stoichiometry of the complexes with LPS by amino acid analysis; assay type: binding; conditions: 10 μg B. Pertussis LPS (2.64 nmoles Lipid A) + 10 μg peptide
Experimental: Quantitation of the amount of precipitated peptides present in the complexes with PLS of B. pertussis has been done by amino acid analysis after acid hydrolysis (by 6 M HCl) of the complexes recovered by centrifugation at 3,000 rpm×15 minutes. In Table III, the stoichiometry of some complexes is reported as calculated by the ratio (on molar basis) between the amount of each peptide and the amount of Lipid A present in the structure of LPS used in the experiments:
*Complexes formed between 10 μg of B. Pertussis LPS (equivalent to 4.5
μg of Lipid A of 2.64 nmoles) and 10 μg of peptide (twice the amoun
corresponding to the saturation point found for Polymyxin "B" in the
**Values represent the average of two separate experiments of amino acid
analysis after acid hydrolysis of the recovered complexes.

[2] = direct competition with Polymyxin "B" (Affinity constant, Selectivity); assay type: binding, B. pertussis
From the text: To further characterize the binding activity of the synthetic peptides for Lipid A of endotoxin, experiments of direct competition with Polymyxin "B" have been set-up in order to evaluate the Affinity constant value of Polymyxin "B" for the toxic moiety of endotoxin and ultimately to calculate the Selectivity of the synthetic peptide analogs (ratio on molar basis, between the affinity constant value of a given peptide and that of Polymyxin "B" for Lipid A).

[3] = prevention of endotoxin-induced death in CD1 mice sensitized with Actinomycin D; assay type: in vivo, mice (Strain CD1); conditions: 0.1 mg/mouse i.v., 1 μg endotoxin i.p.; for Mice surviving: 20 mice per group
Experimental: Prevention of endotoxin-induced death in mice, has been achieved by intravenous injection of the peptides of the invention. For this experiment, a strain of mice highly sensitive to the lethal activity of bacterial endotoxin has been used. Mice sensitized with Actinomycin D (Strain CD1) show a high sensitivity to extremely low doses of endotoxin. A dose as low as 1 μg of endotoxin per mouse (about 40 μg/kg of body weight) is able to completely kill a population of mice within 24-48 hours.
Groups of 20 mice CD1 have been treated intravenously with the peptides of the invention, with a single dose of 0.1 mg peptide, solubilized in sterile saline, per mouse. Thirty minutes later, mice were challenged by intraperitoneal injection of 1 μg of endotoxin purified from E. Coli strain 055-B5. Surviving mice were recorded every 24 hours during a seven days-period of observation. […] Negative controls received an intravenous injection of saline.
There were 20 mice per group. Mice surviving at each of the seven 24 hours observation periods are listed. The % survival appears in parenthesis. P expresses the level of statistical significance calculated by "t-Test" for each molecule compared to the treatment with saline, considering the total survival rate in each group.

## Polymyxin "B"
[1]
  Ratio peptide/LipA: 1.02 mol/mol
[1]; average of two experiments
  Amount of peptide in the complex: 2.69 nmol
[2]; for Lipid A of LPSbp
  AFFINITY (Ka): 1.15e+07 L/mol
[2]; ratio of Ka of peptide to Ka of Polymyxin "B" for Lipid A
  SELECTIVITY (KaANA /KaPCP): 1.0
[3]; 24 hs
  % survival: 50%
  Mice surviving: 10
[3]; 48 hs
  % survival: 40%
  Mice surviving: 8
[3]; 72 hs
  % survival: 30%
  Mice surviving: 6
[3]; 96 hs
  % survival: 30%
  Mice surviving: 6
[3]; 120 hs
  % survival: 30%
  Mice surviving: 6
[3]; 144 hs
  % survival: 30%
  Mice surviving: 6
[3]; 168 hs
  % survival: 30%
  Mice surviving: 6
